Test results as given in article PMC7247319, “The mitochondria-targeted peptide SS-31 binds lipid bilayers and modulates surface electrostatics as a key component of its mechanism of action” (The Journal of Biological Chemistry, 2020).
Where a SMILES comes first, the peptide text is derived from it. [ ]: non-standard residue; d: D form. Dmt = Cc1cc(O)cc(C)c1C[C@H](N)C(=O)O

System: isolated mitochondria
Assay: Respirometry (oxygen consumption) of mitochondria under calcium stress
Set-up: species or system S. cerevisiae
Conditions: mitochondria 1 mg ml^−1, SS-31 54.4 μM, CaCl2 1 mM, preincubated on ice 20 min; n = 10–12
Experimental: Figure 7. SS peptide effects on Ca^2+-membrane interactions and mitochondrial cation stress. A, profiles of surface potential decay (top) and ion distribution (bottom) based on GCS theory in the presence or absence of SS-31 (see supporting Results H for model description). B, effect of SS peptides on Ca^2+ accumulation at model membrane interfaces. Time course measurements of CG-5N emission were performed in solutions with LUVs (20 mol % TOCL in host POPC background, [lipid]^eff = 100 μM) prebound with SS peptide at the indicated concentration followed by titration of CaCl2 in increments of 1 nmol at 20-s intervals starting at t = 60 s. C and D, effect of SS peptides on mitochondrial Ca^2+ uptake. […] Spectral deconvolution yielded the indicated components (see Fig. S19, A and B), which were used to quantify the area ratios of L2/iso in F (values shown are means ± S.D. (error bars) (n = 3). G, respirometry analysis. Mitochondria (1 mg ml^−1) were treated in the absence or presence of SS-31 (54.4 μM) or CaCl2 (1 mM) as indicated and measured for state 2 respiration (n = 10–12 each).
Finally, we measured the effects of SS peptides on mitochondrial calcium stress that may occur independently of Ca^2+ uptake into the matrix. […] To corroborate these findings, we measured mitochondrial oxygen consumption rates under similar conditions of SS peptide treatment and calcium stress. […]

Cc1cc(O)cc(C)c1C[C@H](NC(=O)[C@H](N)CCCNC(=N)N)C(=O)N[C@@H](CCCCN)C(=O)N[C@@H](Cc1ccccc1)C(N)=O [SS-31, D-Arg-2′6′-dimethyl-Tyr-Lys-Phe-NH2] (H-[dR][Dmt]KF-NH2)
effect on calcium-induced increase in basal (state 2) respiration: prevented
